From patent publication US8883812B2, “Piperidinyl pyrimidine amides as Kv7 potassium channel openers” (Pfizer Inc., priority 2010, dated 2014)

Tests used:
[1] = system: Male Wistar Han IGS rats; experiment: Safety studies - behavioral observations (rat DRF); settings: for Rat DRF Dose, Threshold for MCS / Rat DRF Dose, NOEL / Rat DRF Dose, Threshold for SAE: oral gavage, single dose; for Rat DRF Dose, Threshold for MCS: manageable clinical signs; for Rat DRF Dose, NOEL: no observable effect limit; for Rat DRF Dose, Threshold for SAE: serious adverse event; for Rat DRF Dose, Threshold for MCS / Rat DRF Dose, NOEL / Rat DRF Dose, Threshold for SAE / margin with regards to serious adverse events: rat; for margin with regards to serious adverse events: text statement comparing with retigabine
[2] = Compound concentrations (exposure) in rat DRF safety study
[3] = Predicted human efficacious concentration; settings: unbound plasma
[4] = in vivo; settings: male, Wistar Han IGS (CRL:WI [Han]), rat, po
[5] = read-out: Rat DRF Cmax, Threshold for MCS, oral gavage, at MCS threshold dose
[6] = read-out: Rat DRF Cmax, Threshold for SAE, oral gavage, at SAE threshold dose
[7] = ratio of free brain exposure at the dose to projected human concentration

Q: Which results are given for CCOC(=O)Nc1ccc(NCc2ccc(F)cc2)cc1N [Retigabine, N-(2-amino-4-(4-fluorobenzylamino)-phenyl)carbamic acid ethyl ester, reference compound]?
A: Rat DRF Dose, Threshold for MCS [1]: 30 to 50 mg/kg; Rat DRF Dose, NOEL [1]: 30 mg/kg; Rat DRF Dose, Threshold for SAE [1]: 50 mg/kg; margin with regards to serious adverse events [1]: 3.9 ×; Cmax ([2]; read-out: Rat DRF Cmax, NOEL, oral gavage, at NOEL dose): 870 nM; Cmax [2, 5]: 870 to 2390 nM; Cmax [2, 6]: 2390 nM; Predicted human Ceff Cp,u [3]: 607 nM

Q: With COc1nc(N2CCC(OC)CC2)nc(OC)c1NC(=O)CC(C)(C)C [Example 1, N-(4,6-dimethoxy-2-(4-methoxypiperidin-1-yl)pyrimidin-5-yl)-3,3-dimethylbutanamide] as the molecule, how does the “Rat DRF Dose, Threshold for MCS” value [1] read?
A: 10 mg/kg

Q: What about the “Rat DRF Dose, NOEL” value [1] of the same molecule?
A: 3 mg/kg

Q: What about the “Rat DRF Dose, Threshold for SAE” value [1] of the same molecule?
A: 100 mg/kg

Q: What about the “margin with regards to serious adverse events” value [1] of the same molecule?
A: 69 ×

Q: What about the “Rat DRF TI (toxicity index), NOEL” value [1, 7] of the same molecule?
A: 4.2

Q: And the “Rat DRF TI (toxicity index), Threshold for MCS” value [1, 7]?
A: 7.6

Q: What about the “Rat DRF TI (toxicity index), Threshold for SAE” value [1, 7] of the same molecule?
A: 67

Q: And the Cmax [4]?
A: 54 nM

Q: What about the Cmax [2, 5] of the same molecule?
A: 99 nM

Q: And the Cmax [2, 6]?
A: 866 nM

Q: And the “Predicted human Ceff Cp,u” value [3]?
A: 13 nM
